One assay deals with NASH mice. Nature of the assay: Serum transaminases AST and ALT in HFD-induced NASH mice (clinical chemistry panel). Format: in vivo, C57B1/6J mice. The text has this:
(§1) Early Steatosis Model: C57B1/6J mice (22-39 days old) mice were used for the study. Mice were fed normal chow food (Lab Diet, 5P14Prolab Animal Diet, PMI Nutritional International, Brentwood, Mo., Cat# RMH 2500) or 58% high fat diet (HFD, 58 kcal % fat and corn starch with purple dye, Research Diets, New Brunswick, N.J., Cat# D12330 equivalent to Western diet) for 120-150 days. […] This group is referred to as the HFD-low body group in FIG. 1A (insulin & liver fat accumulation˜normal). On the other hand, one fifth of the mice gained 60-70% higher body weight (compared to normal chow fed mice) while on the same HFD diet (NASH group, very high insulin and liver fat) further shown in FIG. 1A. The majority of the mice (three fifths) gained body weight as expected on the HFD (30-40% higher than the normal chow fed mice) and is referred to as the DIO group (normal to moderately high insulin and liver fat accumulation) as shown in FIG. 1A. Control animals (n=5) representative of the HFD-low body weight and the NASH groups were sacrificed prior to starting the rest of the animals on treatment with the Compound 2 (5 or 10 mg/Kg/day). Liver, white adipose and muscle from the sacrificed mice were collected for histology performed on the liver tissue.
Following 120-150 days on the HFD, mice in the NASH group were treated with Compound 2 (5 or 10 mg/Kg/day) or vehicle (10% Encapsin) for 42 days. Fasting and post prandial (PP) blood draws were taken at the beginning of the study (compound treatment) to identify and confirm the NASH group and during the study to evaluate various pharmacological responses. Since the NASH mice are severely hyperinsulinemic compared to NC mice, glucose tolerance testing (GTT, measures peripheral insulin resistance) was performed to evaluate the effect of Compound 2 on improvement of peripheral insulin sensitivity. Treatment was administered for 42 days (separate experiments). Body weight and food intake was measured throughout the study.
Tail blood was collected into EDTA capillary tubes (Becton, Dickinson and Company, Franklin Lakes, N.J., Cat #365973). Upon sacrifice, blood was collected by cardiac puncture using a 1 mL Syringe Tuberculin Slip Tip (Becton, Dickinson & Company, Cat #309602) and B-D25G 5/8 needle (Becton Dickinson, Franklin Lakes, N.J., Cat #305122) and saved into Microtainer brand tube with EDTA (Becton, Dickinson and Company, Cat #365973). The blood was spun for 8 minutes at 8500 rpm at 4° C. (Eppendorf, Centrifuge 5415R, New York, N.Y.). Plasma was collected and stored at −20° C. for further analyses
80 μL EDTA plasma was diluted with 80 μL Dulbecco's phosphate buffered saline (Gibco, Grand Island, N.Y., Cat #14040-133) and analyzed in Olympus AU600 (Olympus, London, UK) for the following endpoints. The lower and upper limit ranges were according to the assay values provided by the JAS Diagnostics, INC (Miami, Fla.). • Glucose (LL 94-116, UL 297-353 mg/dL, Cat # JAS GLU2-125) • Triglycerides (LL 46-102, UL 128-168 mg/dL, Cat # TRI2-125) • ALT/GPT (LL 10-34, UL 64-114 U/L, Cat # JAS ALT2-125) • AST/GOT (LL 18-46, UL 121-187 U/L, Cat # JAS AST2-125) • Multi-Chemistry calibrator (Albumin: 3.9 g/dL, Cholesterol: 212 mg/dL, • Creatinine: 4.4 mg/dL, Glucose: 220 mg/dL, Triglycerides: 116 mg/dL, Cat # JAS CAL1-5) • Multi-Chemistry control level 1 (Range: See above for each constituent, Cat # JAS CON1-5) • Multi-Chemistry control level 2 (Range: See above for each constituent, Cat # JAS CON2-5)

Assay [1] is described as follows: Body weight loss in NASH mice. Particulars: oral administration, p<0.05 vs. vehicle. The assay is classed as in vivo, C57B1/6J mice.
Excerpt: as §1, with “Liver, white adipose and muscle from the sacrificed mice were collected for histology performed on the liver tissue.” left out
Following 120-150 days on the HFD, mice in the NASH group were treated with Compound 2 (5 or 10 mg/Kg/day) or vehicle (10% Encapsin) for 42 days. […] Body weight and food intake was measured throughout the study.

Structures can show the parent of a compound that is named as a salt.

`C[C@@H]1CN(Cc2ccc(OC(F)(F)F)cc2)C[C@H](C)N1S(=O)(=O)c1cccc2c1C[C@@H](C(=O)O)C2` [Compound 2, (S)-4-[cis-2,6-Dimethyl-4-(4-trifluoromethoxy-benzyl)-piperazine-1-sulfonyl]-indan-2-carboxylic acid tosylate]: in the assay on NASH mice (42 days of 5 mg/kg/day, p<0.02), the “reduction in AST compared to the vehicle group” value was 43%. In the assay on NASH mice (42 days of 5 mg/kg/day, p<0.05), the “reduction in ALT compared to the vehicle group” value worked out at 43%. For the same compound, the “ALT serum level, treated group” value in the assay on NASH mice (42 days of 5 mg/kg/day, vehicle 108±15, in U/L) is on record as 62±13. Moreover, in the assay on NASH mice (42 days of 5 mg/kg/day, vehicle 201±23, in U/L), the “AST serum level, treated group” value stood at 115±19. Further, the “levels of serum transaminases AST and ALT” value in the assay on NASH mice (oral administration, summary) is on record as “reduced levels”. For the same compound, the weight loss result in assay [1] is “increased weight loss”.

The values are drawn from patent publication US9463189B2 (BPV Holdings, LLC, priority 2007, dated 2016).
